Experimental data from patent US11608332B2, “FGFR4 inhibitor and preparation method and use thereof” (Jiangsu Hansoh Pharmaceutical Group Co., Ltd., priority 2016, dated 2023).

Experiments:
FGFR1 kinase = FGFR1 kinase (Homo sapiens (Human), UniProt P11362); experiment: Enzymologic experiment of FGFR1 (TR-FRET); format: biochemical; settings: TR-FRET kinase activity
Procedure: 2. Enzymologic Experiment of FGFR1
In this experiment, the inhibitory effect of the compounds on FGFR1 kinase activity was tested by a fluorescence resonance energy transfer (TR-FRET) method, and the half maximal inhibitory concentration (IC50) of the compounds on the FGFR1 kinase activity was determined.
1) 1˜5 μL of FGFR1 enzymatic solution was added to a 384-well plate, and the final concentration of the enzyme was 0.1˜5 nM.
2) 1˜5 μL of diluted solution in gradient of the compound was added.
3) 1˜5 μL of a substrate mixture containing substrate polypeptide with a final concentration of 5˜50 nM and ATP with a final concentration of 10˜200 μM was added.
4) The mixture was incubated for 0.5-3 hours at room temperature.
5) 10 μL of EDTA and a test solution comprising labeled antibody were added, and the plate was incubated for 1 hour at room temperature.
6) The fluorescence signal values of each plate were determined by a microplate reader at 665 nm.
7) The inhibition rates were calculated according to the fluorescence signal values.
The IC50 of the compound was obtained by curve fitting according to the inhibition rates at different concentrations, and the enzymatic activity of the specific example compounds is shown in Table 1.

SK-HEP-1 cells = experiment: Inhibition of SK-HEP-1 cell proliferation (CellTiter-Glo); format: cell-based; settings: Homo sapiens, SK-HEP1, 72 hours
Procedure: 5. Experiment on the Inhibition of SK-HEP-1 Cell Proliferation
In this experiment, the inhibitory effect of the compounds on SK-HEP-1 cell proliferation was tested by a CellTiter-Glo method, and the half maximal inhibitory concentration (IC50) of the compounds on the activity of cell proliferation was determined.
1) A 96-well cell culture plate was seeded with 50˜100 μL of SK-HEP-1 cell suspension at a density of 1-5×10^4 cells/ml. The culture plate was incubated in an incubator for 16˜24 hours (37° C., 5% CO2).
(§1) 2) Different concentrations of the test compound in a gradient dilution were added to the cells in the culture plate. The culture plate was incubated in an incubator for 72 hours (37° C., 5% CO2).
(§2) 3) 50˜100 μL of CellTiter-Glo reagent were added to each well. Then, the culture plate was shaken or left to stand for 5˜30 minutes at room temperature.
(§3) 4) The chemiluminescence signal values of each plate were determined by a microplate reader.
(§4) 5) The inhibition rates were calculated according to the chemiluminescence signal values.
The IC50 of the compound was obtained by curve fitting according to the inhibition rates at different concentrations, and the cell activity of the specific Example compounds is shown in Table 2.

Hep 3B cells = experiment: Inhibition of Hep 3B cell proliferation (CellTiter-Glo); format: cell-based; settings: Homo sapiens, Hep3B, 72 hours
Procedure: 3. Experiment on the Inhibition of Hep 3B Cell Proliferation
In this experiment, the inhibitory effect of the compounds on Hep 3B cell proliferation was tested by a CellTiter-Glo method, and the half maximal inhibitory concentration (IC50) of the compounds on the activity of cell proliferation was determined.
1) A 96-well cell culture plate was seeded with 50˜100 μL of Hep 3B cell suspension at a density of 1-5×10^4 cells/ml. The culture plate was incubated in an incubator for 16-24 hours (37° C., 5% CO2).
as §1
3) 50-100 μL of CellTiter-Glo reagent were added to each well. Then, the culture plate was shaken or left to stand for 5˜30 minutes at room temperature.
as §3, §4
6) The IC50 of the compound was obtained by curve fitting according to the inhibition rates at different concentrations, and the cell activity of the specific example compounds is shown in Table 2.

HuH-7 cells = experiment: Inhibition of HuH-7 cell proliferation (CellTiter-Glo); format: cell-based; settings: Homo sapiens, 72 hours
Procedure: 4. Experiment on the Inhibition of HuH-7 Cell Proliferation
In this experiment, the inhibitory effect of the compounds on HuH-7 cell proliferation was tested by a CellTiter-Glo method, and the half maximal inhibitory concentration (IC50) of the compounds on the activity of cell proliferation was determined.
1) A 96-well cell culture plate was seeded with 50˜100 μL of HuH-7 cell suspension at a density of 1-5×10^4 cells/ml. The culture plate was incubated in an incubator for 16˜24 hours (37° C., 5% CO2).
as §1, §2, §3, §4
6) The IC50 of the compound was obtained by curve fitting according to the inhibition rates at different concentrations, and the cell activity of the specific Example compounds is shown in Table 2.

[1] = Pharmacokinetic (PK) analysis in rats; format: in vivo, Sprague Dawley (SD) rats; settings: SD rats, single intragastric administration, 5 mg/kg, plasma; for AUC(0-t): read-out: Area Under Curve AUC0-t; for AUC(0-inf): read-out: Area Under Curve AUC0-∞; for half-life: read-out: Half-Time t1/2 (converted); for Cmax: read-out: Plasma Concentration Cmax
Procedure: 6. Pharmacokinetic (PK) Analysis in Rats
Mode of administration: a single intragastric administration.
Formulation: 0.5% CMC and 1% Tween 80, ultrasonic dissolution.
Sampling points: 0.5, 1, 2, 4, 6, 8 and 24 hours after administration.
1. 1.0 ml of intravenous blood was collected and placed in a K2EDTA test tube.
The blood was centrifuged at room temperature at the speed of 1000˜3000×g for 5˜20 minutes to isolate the plasma, which was then stored at −80° C. 2. 160 μL of acetonitrile were added to 40 μL of plasma sample for precipitation, and then the mixture was centrifuged at the speed of 500˜2000×g for 5˜20 minutes. 3. 100 μL of treated solution were taken, and the concentration of the test compound was analyzed by LC/MS/MS. The LC/MS/MS analytical instrument was AB Sciex API 4000.
Liquid Chromatography Analysis:
Condition of Liquid chromatography: Shimadzu LC-20AD pump
Chromatographic column: phenomenex Gemiu 5 um C18 50×4.6 mm
Mobile phase: Solution A is 0.1% aqueous formic acid solution, and solution B is acetonitrile
Elution time: 0-3.5 minutes, the eluent was as follows:
Mass spectrometry analysis:
Mass spectrometer setup conditions: positive ion electrospray ionization (ESI) mode.

Sequence of FGFR1 kinase (P11362 22-822): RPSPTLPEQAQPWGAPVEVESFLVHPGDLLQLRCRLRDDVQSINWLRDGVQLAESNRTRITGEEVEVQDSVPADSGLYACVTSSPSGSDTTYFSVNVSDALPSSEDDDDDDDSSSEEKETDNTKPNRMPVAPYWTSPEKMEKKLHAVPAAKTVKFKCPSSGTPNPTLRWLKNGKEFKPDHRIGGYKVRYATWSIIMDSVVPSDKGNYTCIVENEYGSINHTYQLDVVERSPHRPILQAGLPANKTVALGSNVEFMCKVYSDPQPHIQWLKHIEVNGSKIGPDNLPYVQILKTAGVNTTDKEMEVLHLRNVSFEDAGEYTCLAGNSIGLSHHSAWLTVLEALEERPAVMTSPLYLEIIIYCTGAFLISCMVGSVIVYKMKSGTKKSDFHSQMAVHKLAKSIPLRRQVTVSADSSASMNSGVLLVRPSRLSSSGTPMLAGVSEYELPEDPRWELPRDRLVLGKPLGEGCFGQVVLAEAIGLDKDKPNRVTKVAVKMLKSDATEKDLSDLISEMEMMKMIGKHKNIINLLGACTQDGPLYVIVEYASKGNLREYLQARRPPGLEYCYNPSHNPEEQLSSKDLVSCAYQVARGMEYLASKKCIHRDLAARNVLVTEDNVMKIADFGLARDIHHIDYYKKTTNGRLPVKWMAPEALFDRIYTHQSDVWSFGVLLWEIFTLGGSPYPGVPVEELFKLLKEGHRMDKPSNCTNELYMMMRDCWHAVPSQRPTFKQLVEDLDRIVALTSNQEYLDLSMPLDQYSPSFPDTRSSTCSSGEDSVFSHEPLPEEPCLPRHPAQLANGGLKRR

Row | SMILES | IC50 (FGFR1 kinase) [nM] | IC50 (SK-HEP-1 cells) [nM] | IC50 (Hep 3B cells) [nM] | IC50 (HuH-7 cells) [nM] | Peak Time tmax [1] [h] | AUC(0-t) ([1]; Sprague-Dawley, rat, po) [ng·h/mL] | AUC(0-inf) ([1]; Sprague-Dawley, rat, po) [ng·h/mL] | half-life ([1]; Sprague-Dawley, rat, po) [h] | Cmax ([1]; Sprague-Dawley, rat, po) [ng/mL] | MRT ([1]; Sprague-Dawley, rat, po, read-out: Mean Residence Time MRT) [h]
1 | COCCNc1cc(NC(=O)N2CCCc3cc(CN(C[C@@H]4CCCO4)C(C)=O)c(C=O)nc32)ncc1C#N [Example 111, (S)—N-(5-Cyano-4-((2-methoxyethyl)amino)pyridin-2-yl)-7-formyl-6-((N-((tetrahydrofuran-2-yl)methyl)acetamido)methyl)-3,4-dihydro-1,8-naphthyridin-1(2H)-carboxamide] | > 10000 | > 10000 | 8.3 | 21.5 | – | – | – | – | – | –
2 | CO[C@H]1CCN(c2cc(NC(=O)N3CCCc4cc(CN5CC[C@H](OC)C5=O)c(C=O)nc43)ncc2C#N)C1 [Example 53, N-(5-Cyano-4-((S)-3-methoxypyrrolidin-1-yl)pyridin-2-yl)-7-formyl-6-(((S)-3-methoxy-2-carbonylpyrrolidin-1-yl)methyl)-3,4-dihydro-1,8-naphthyridin-1(2H)-carboxamide] | > 10000 | – | – | – | – | – | – | – | – | –
3 | COC[C@H](C)Nc1cc(NC(=O)N2CCCc3cc(CN4CC[C@H](OC)C4=O)c(C=O)nc32)ncc1C#N [Example 90, N-(5-Cyano-4-(((S)-1-methoxypropan-2-yl)amino)pyridin-2-yl)-7-formyl-6-(((S)-3-methoxy-2-carbonylpyrrolidin-1-yl)methyl)-3,4-dihydro-1,8-naphthyridin-1(2H)-carboxamide] | > 10000 | – | – | – | – | – | – | – | – | –
4 | COCCNc1cc(NC(=O)N2CCCc3cc(CN(C=O)C[C@H]4CCCO4)c(C=O)nc32)ncc1C#N [Example 110, (R)—N-(5-Cyano-4-((2-methoxyethyl)amino)pyridin-2-yl)-7-formyl-6-((N-((tetrahydrofuran-2-yl)methyl)formylamino)methyl)-3,4-dihydro-1,8-naphthyridin-1(2H)-carboxamide] | – | > 10000 | 8.3 | 28.5 | – | – | – | – | – | –
5 | COCCNc1cc(NC(=O)N2CCCc3cc(CN(C[C@H]4CCCO4)C(C)=O)c(C=O)nc32)ncc1C#N [Example 109, (R)—N-(5-Cyano-4-((2-methoxyethyl)amino)pyridin-2-yl)-7-formyl-6-((N-((tetrahydrofuran-2-yl)methyl)acetamido)methyl)-3,4-dihydro-1,8-naphthyridin-1(2H)-carboxamide] | > 10000 | > 10000 | 6 | 11.1 | – | – | – | – | – | –
6 | COCCNc1cc(NC(=O)N2CCCc3cc(CN4CCC(OC)C4=O)c(C=O)nc32)ncc1C#N (centres unmarked) [Example 44, N-(5-Cyano-4-((2-methoxyethyl)amino)pyridin-2-yl)-7-formyl-6-((3-methoxy-2-carbonylpyrrolidin-1-yl)methyl)-3,4-dihydro-1,8-naphthyridin-1(2H)-carboxamide] | – | > 10000 | 6 | 6.9 | 2 | 9690 | 9820 | 1 | 3010 | –
7 | COC[C@@H](C)Nc1cc(NC(=O)N2CCCc3cc(CN4CC[C@@H](OC)C4=O)c(C=O)nc32)ncc1C#N [Example 91, N-(5-cyano-4-(((R)-1-methoxypropan-2-yl)amino)pyridin-2-yl)-7-formyl-6-(((R)-3-methoxy-2-carbonylpyrrolidin-1-yl)methyl)-3,4-dihydro-1,8-naphthyridin-1(2H)-carboxamide] | – | > 10000 | 1.5 | 3.3 | 0.5 | 12900 | 13000 | 0.9 | 2790 | 2.8
8 | COCCNc1cc(NC(=O)N2CCCc3cc(CN(C)C(=O)[C@H]4CCOC4)c(C=O)nc32)ncc1C#N [Example 6, (S)—N-(5-Cyano-4-((2-methoxyethyl)amino)pyridin-2-yl)-7-formyl-6-((N-methyltetrahydrofuran-3-carboxamido)methyl)-3,4-dihydro-1,8-naphthyridin-1(2H)-carb oxamide] | > 10000 | > 10000 | 2.7 | 9.7 | – | – | – | – | – | –
9 | COCC(=O)N(C)Cc1cc2c(nc1C=O)N(C(=O)Nc1cc(N3CC[C@H](OC)C3)c(C#N)cn1)CCC2 [Example 106, (S)—N-(5-Cyano-4-(3-methoxypyrrolidin-1-yl)pyridin-2-yl)-7-formyl-6-((2-methoxy-N-methylacetamido)methyl)-3,4-dihydro-1,8-naphthyridin-1(2H)-carboxamide] | > 10000 | > 10000 | 5.8 | 21.1 | – | – | – | – | – | –
10 | COCCNc1cc(NC(=O)N2CCCc3cc(CN4CC[C@@H](OC)C4=O)c(C=O)nc32)ncc1C#N [Example 45, (R)—N-(5-Cyano-4-((2-methoxyethyl)amino)pyridin-2-yl)-7-formyl-6-((3-methoxy-2-carbonylpyrrolidin-1-yl)methyl)-3,4-dihydro-1,8-naphthyridin-1(2H)-carboxamide] | – | > 10000 | 1.9 | 8.3 | 2 | 12100 | 12300 | 1.1 | 3760 | –
11 | COCCNc1cc(NC(=O)N2CCCc3cc(CN(C=O)[C@H]4CCOC4)c(C=O)nc32)ncc1C#N [Example 114, (S)—N-(5-Cyano-4-((2-methoxyethyl)amino)pyridin-2-yl)-7-formyl-6-((N-(tetrahydrofuran-3-yl)formylamino)methyl)-3,4-dihydro-1,8-naphthyridin-1(2H)-carboxamide] | – | > 10000 | 8.6 | 26.7 | – | – | – | – | – | –
12 | COC[C@H](C)Nc1cc(NC(=O)N2CCCc3cc(CN(C)C(=O)[C@H]4CCCO4)c(C=O)nc32)ncc1C#N [Example 92, N-(5-Cyano-4-(((S)-1-methoxypropan-2-yl)amino)pyridin-2-yl)-7-formyl-6-(((R)—N-methyltetrahydrofuran-2-carboxamido)methyl)-3,4-dihydro-1,8-naphthyridin-1(2H)-carboxamide] | > 10000 | – | – | – | – | – | – | – | – | –
